A value given as a limit tells only on which side of the number the result lay.

The test system of this assay is RAW264.7. Briefly: Inhibition of LPS-induced nitric oxide production in mouse RAW264.7 cells preincubated with compound for 1 hr before exposure to LPS measured after 24 hrs by Griess reaction method. The assay is classed as functional, cell-based.

In general, IC50 refers to the midpoint of a concentration-inhibition curve. Consider `COc1cc([C@H](O)[C@H](CO)Oc2c(OC)cc(/C=C/CO)cc2OC)ccc1O`, for which the IC50 stood at 58.2 µM.

Take `COc1cc([C@@H](O)[C@@H](CO)Oc2ccc(CCCO)cc2OC)ccc1O`: the IC50 turned out to be 63.4 µM.

For the compound `COc1cc(CC(CO)OC(CO)C(OC)c2cc(OC)c(O)c(OC)c2)ccc1O` (stereo not given), the IC50 is 41.9 µM.

On to `COc1cc([C@@H]2c3c(cc(OC)c(O)c3OC)C[C@@H](CO)[C@@H]2CO)cc(OC)c1O`, for which the half-inhibitory concentration (IC50) amounted to 55.5 µM.

`COc1cc([C@H]2Oc3c(OC)cc(/C=C/CO)cc3[C@@H]2CO)cc(OC)c1O`: the half-maximal inhibitory concentration (IC50) stood at 11.7 µM.

As for `COc1cc([C@@H](O)[C@H](CO)Oc2ccc(/C=C/CO)cc2OC)ccc1O`, the IC50 was found to be 63.6 µM.

Regarding `COc1cc([C@H](O)[C@@H](CO)Oc2c(OC)cc(/C=C/CO)cc2OC)cc(OC)c1O`, the half-inhibitory concentration (IC50) amounted to 57.9 µM.

With `COc1cc([C@H](O)[C@H](CO)Oc2ccc(CCCO)cc2OC)ccc1O`, the concentration for half-maximal inhibition (IC50) is 69.2 µM.

On to `COc1cc([C@H]2OC[C@H]3[C@@H]2CO[C@@H]3c2cc(OC)c(OC)c(OC)c2)cc(OC)c1O`, for which the IC50 is 15.8 µM.

For the compound `COc1cc(C(O)C(CO)Oc2c(OC)cc(C3Oc4c(OC)cc(/C=C/CO)cc4C3CO)cc2OC)ccc1O` (stereo not given), the IC50 amounted to 21.3 µM.

In the case of `COc1cc([C@@H]2Oc3c(OC)cc(/C=C/CO)cc3[C@H]2CO)cc(OC)c1O`, the half-maximal inhibitory concentration (IC50) is 12.8 µM.

For `COc1cc([C@H]2Oc3c(OC)cc(/C=C/CO)cc3[C@@H]2CO)ccc1O`, the IC50 came out at 9.3 µM.

Take `COc1cc([C@H](O)[C@@H](CO)Oc2ccc(/C=C/CO)cc2OC)ccc1O`: the 50% inhibitory concentration (IC50) stood at 66.4 µM.

Consider `COc1cc(C(OC)C(CO)OC(CO)Cc2cc(OC)c(O)c(OC)c2)ccc1O` (single isomer, unassigned; (-)), for which the half-inhibitory concentration (IC50) was determined as 44.3 µM.

As to `COc1cc([C@@H]2Oc3c(OC)cc(/C=C/CO)cc3[C@H]2CO)ccc1O` [DEHYDROCONIFERYL ALCOHOL], the IC50 was 8.5 µM.

Take `COc1cc([C@H]2Oc3c(OC)cc(CCCO)cc3[C@@H]2CO)ccc1O` [DIHYDRODEHYDRODICONIFERY ALCOHOL]: the IC50 stood at 9.8 µM.

Take `COc1cc(C(O)C(CO)Oc2c(OC)cc(C3OCC4C(c5cc(OC)c(OC(CO)C(O)c6ccc(O)c(OC)c6)c(OC)c5)OCC34)cc2OC)ccc1O` (stereo not given) [HEDYOTISOL B]: the 50% inhibitory concentration (IC50) is over 100 µM.

`COc1cc([C@H]2OC[C@H]3[C@@H]2CO[C@@H]3c2cc(OC)c(O[C@H](CO)[C@@H](O)c3ccc(O)c(OC)c3)c(OC)c2)ccc1O` [HEDYOTOL C]: the IC50 was found to be 21.4 µM.

`COC(=O)[C@@H](N)CCCNC(=N)N[N+](=O)[O-]` [L-NAME]: the half-inhibitory concentration (IC50) turned out to be 48.5 µM.

On to `COc1cc([C@H]2OC[C@H]3[C@@H]2CO[C@@H]3c2cc(OC)c(O)c(OC)c2)cc(OC)c1O` [SYRINGARESINOL], for which the IC50 was determined as 14.8 µM.

Source of the values: ChEMBL document CHEMBL1759900, “Inhibition of nitric oxide production in lipopolysaccharide-stimulated RAW264.7 macrophage cells by lignans isolated from Euonymus alatus leaves and twigs” (Bioorg Med Chem Lett, 2011).
